Measured values reported in ChEMBL document CHEMBL4706623, “GPR52 Antagonist Reduces Huntingtin Levels and Ameliorates Huntington's Disease-Related Phenotypes” (J Med Chem, 2021).

Target: G-protein coupled receptor 52 (Homo sapiens, UniProt Q9Y2T5)
Experiment: Antagonist activity at GPR52 (unknown origin) expressed in HEK293 cells assessed as inhibition of WO459-induced cAMP accumulation preincubated for 15 mins followed by WO459 addition and measured after 30 mins by LANCE Ultra cAMP kit based microplate reader analysis
Format: functional, cell-based
Details: read-out: IC50

Sequence of G-protein coupled receptor 52 (Q9Y2T5 whole entry): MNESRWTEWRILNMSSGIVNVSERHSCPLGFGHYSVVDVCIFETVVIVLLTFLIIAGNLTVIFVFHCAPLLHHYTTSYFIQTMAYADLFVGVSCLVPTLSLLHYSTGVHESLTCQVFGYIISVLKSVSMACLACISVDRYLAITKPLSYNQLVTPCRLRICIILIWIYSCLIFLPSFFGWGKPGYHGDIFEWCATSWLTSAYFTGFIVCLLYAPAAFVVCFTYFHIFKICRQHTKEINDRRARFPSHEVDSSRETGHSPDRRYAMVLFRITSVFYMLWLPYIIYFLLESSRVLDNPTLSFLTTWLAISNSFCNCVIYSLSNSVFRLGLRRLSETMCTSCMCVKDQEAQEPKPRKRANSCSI

Cc1ccc(C(=O)/C=C/CCc2ccccc2)cc1
IC50: 3.02 µM
